US10208015B2, “Aryl-triazolyl pyridines as pest control agents” (BAYER ANIMAL HEALTH GMBH, priority 2014, dated 2019)
Read-outs that look alike come from different tables or passages of the source.

Assays:
[1] = logP by HPLC on reversed-phase column (C18), EEC Directive 79/831 Annex V.A8; type: physicochemical; conditions: for logP: HPLC, C18, acetonitrile (0.1% formic acid)/water (0.09% formic acid) gradient
Boophilus microplus = Boophilus microplus injection test; type: in vivo; conditions: application rate 20 μg/animal, assessed after 7 days
Method: Boophilus microplus—Injection Test • Solvent: dimethyl sulphoxide […] The animals are transferred into dishes and kept in a climate-controlled room. Efficacy is assessed after 7 days by laying of fertile eggs. Eggs which are not visibly fertile are stored in a climate-controlled cabinet until the larvae hatch after about 42 days.

Ctenocephalides felis = Ctenocephalides felis oral test; type: in vivo; conditions: application rate 100 ppm in citrated cattle blood, after 2 days
Description: Ctenocephalides felis—Oral Test • Solvent: dimethyl sulphoxide […] Dilution with citrated cattle blood gives the desired concentration. About 20 unfed adult cat fleas (Ctenocephalides felis) are placed into a chamber which is closed at the top and bottom with gauze. A metal cylinder whose bottom end is closed with parafilm is placed onto the chamber. The cylinder contains the blood/active compound preparation, which can be imbibed by the fleas through the parafilm membrane.

Lucilia cuprina = Lucilia cuprina test; type: in vivo; conditions: application rate 100 ppm, L1 larvae, after 2 days
Method: (§1) • Solvent: dimethyl sulphoxide
(§2) To produce a suitable preparation of active compound, 10 mg of active compound are mixed with 0.5 ml of dimethyl sulphoxide, and the concentrate is diluted with water to the desired concentration.
About 20 L1 larvae of the Australian sheep blowfly (Lucilia cuprina) are transferred into a test vessel containing minced horsemeat and the active compound preparation of the desired concentration.
After 2 days, the kill in % is determined. 100% means that all the larvae have been killed; 0% means that no larvae have been killed.

Musca domestica = Musca domestica test; type: in vivo; conditions: application rate 100 ppm, adult houseflies, after 2 days
Method: as §1, §2
Vessels containing a sponge treated with sugar solution and the active compound preparation of the desired concentration are populated with 10 adult houseflies (Musca domestica).
After 2 days, the kill in % is determined. 100% means that all of the flies have been killed; 0% means that none of the flies have been killed.

## CCc1cc(C(F)(C(F)(F)F)C(F)(F)F)cc(Br)c1N [2-bromo-6-ethyl-4-heptafluoroisopropylaniline]
[1]
  log P (HPLC-MS): 4.38

## CCc1cc(C(F)(C(F)(F)F)C(F)(F)F)cc(Cl)c1N [2-chloro-6-ethyl-4-heptafluoroisopropylaniline]
[1]; HPLC-MS method a)
  log P (HPLC-MS): 4.67

## Cc1cc(C(F)(C(F)(F)F)C(F)(F)F)cc(C(F)(F)F)c1N [4-heptafluoroisopropyl-2-methyl-6-trifluoromethylaniline]
[1]; HPLC-MS method a)
  log P (HPLC-MS): 4.67

## COc1ncc(-c2cn(-c3c(Cl)cc(C(F)(C(F)(F)F)C(F)(F)F)cc3Cl)nn2)cc1C(=O)NC1CC1 [Example 10]
[1]
  logP: 4.4
Boophilus microplus
  efficacy (laying of fertile eggs): 100%
Ctenocephalides felis
  efficacy (kill in %): 100%
Lucilia cuprina
  efficacy (kill in %): 95%

## CCc1cc(C(F)(C(F)(F)F)C(F)(F)F)cc(C)c1-n1cc(-c2cnc(Cl)c(C(=O)NCC(F)(F)F)c2)nn1 [Example 23]
[1]
  logP: 4.5
Boophilus microplus
  efficacy (laying of fertile eggs): 100%
Ctenocephalides felis
  efficacy (kill in %): 100%
Lucilia cuprina
  efficacy (kill in %): 100%

## CCc1cc(C(F)(C(F)(F)F)C(F)(F)F)cc(C)c1-n1cc(-c2cnc(Cl)c(C(=O)NC(C)C)c2)nn1 [Example 24]
[1]
  logP: 4.4
Boophilus microplus
  efficacy (laying of fertile eggs): 100%
Ctenocephalides felis
  efficacy (kill in %): 100%

## Cc1cc(C(F)(C(F)(F)F)C(F)(F)F)cc(Br)c1-n1cc(-c2cnc(Cl)c(C(=O)NCC(F)(F)F)c2)nn1 [Example 26]
[1]
  logP: 4.3
Boophilus microplus
  efficacy (laying of fertile eggs): 100%
Ctenocephalides felis
  efficacy (kill in %): 100%
Lucilia cuprina
  efficacy (kill in %): 100%
Musca domestica
  efficacy (kill in %): 100%

## O=C(NCC(F)(F)F)c1cc(-c2cn(-c3c(Cl)cc(-c4ccccc4)cc3Cl)nn2)cnc1Cl [Example 28]
[1]
  logP: 3.9
Boophilus microplus
  efficacy (laying of fertile eggs): 100%
Ctenocephalides felis
  efficacy (kill in %): 100%

## CC(C)NC(=O)c1cc(-c2cn(-c3c(Cl)cc(-c4ccccc4)cc3Cl)nn2)cnc1Cl [Example 29]
[1]
  logP: 3.8
Boophilus microplus
  efficacy (laying of fertile eggs): 100%

## CCNC(=O)c1cc(-c2cn(-c3c(Cl)cc(-c4ccccc4)cc3Cl)nn2)cnc1Cl [Example 30]
[1]
  logP: 3.5
Boophilus microplus
  efficacy (laying of fertile eggs): 100%
Ctenocephalides felis
  efficacy (kill in %): 100%
Lucilia cuprina
  efficacy (kill in %): 100%

## CN(C(=O)c1cc(-c2cn(-c3c(Cl)cc(-c4ccccc4)cc3Cl)nn2)cnc1Cl)C1CC1 [Example 31]
[1]
  logP: 4.0
Boophilus microplus
  efficacy (laying of fertile eggs): 100%
Ctenocephalides felis
  efficacy (kill in %): 100%
Lucilia cuprina
  efficacy (kill in %): 100%

## O=C(NC1CC1)c1cc(-c2cn(-c3c(Cl)cc(-c4ccccc4)cc3Cl)nn2)cnc1Cl [Example 32]
[1]
  logP: 3.5
Boophilus microplus
  efficacy (laying of fertile eggs): 100%
Ctenocephalides felis
  efficacy (kill in %): 100%
Lucilia cuprina
  efficacy (kill in %): 100%

## O=C(NC1CC1)c1cc(-c2cn(-c3c(Cl)cc(C(F)(C(F)(F)F)C(F)(F)F)cc3OC(F)F)nn2)cnc1Cl [Example 36]
[1]
  logP: 3.7

## CN(C(=O)c1cc(-c2cn(-c3c(Cl)cc(C(F)(C(F)(F)F)C(F)(F)F)cc3OC(F)F)nn2)cnc1Cl)C1CC1 [Example 37]
[1]
  logP: 4.2

## N#CC1(NC(=O)c2cc(-c3cn(-c4c(Cl)cc(C(F)(C(F)(F)F)C(F)(F)F)cc4OC(F)F)nn3)cnc2Cl)CC1 [Example 38]
[1]
  logP: 3.7
